For assay [1], the target named is T1, Thermolysin (Bacillus thermoproteolyticus, UniProt P00800).
T1 sequence (P00800 whole entry): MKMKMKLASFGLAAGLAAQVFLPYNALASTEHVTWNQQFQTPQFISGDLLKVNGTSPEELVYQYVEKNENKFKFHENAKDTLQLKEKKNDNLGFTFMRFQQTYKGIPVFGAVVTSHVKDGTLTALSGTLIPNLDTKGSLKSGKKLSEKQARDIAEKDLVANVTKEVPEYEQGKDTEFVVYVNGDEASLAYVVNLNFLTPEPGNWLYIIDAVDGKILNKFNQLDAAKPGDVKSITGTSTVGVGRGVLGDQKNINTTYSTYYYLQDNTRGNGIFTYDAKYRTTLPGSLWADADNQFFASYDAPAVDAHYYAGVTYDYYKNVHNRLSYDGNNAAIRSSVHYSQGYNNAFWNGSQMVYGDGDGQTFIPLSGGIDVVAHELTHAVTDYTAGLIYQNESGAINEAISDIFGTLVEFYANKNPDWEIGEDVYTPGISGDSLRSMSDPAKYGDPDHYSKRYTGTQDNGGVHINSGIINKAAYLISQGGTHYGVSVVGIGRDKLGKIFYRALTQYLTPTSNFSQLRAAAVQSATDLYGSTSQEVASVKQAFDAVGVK
Put plainly: Inhibition of Bacillus thermoproteolyticus thermolysin after 15 mins by microplate spectrophotometric analysis in presence of 1.0 mM substrate FaGLa.

For assay [2], the target named is T1, Thermolysin. Put plainly: Inhibition of Bacillus thermoproteolyticus thermolysin after 15 mins by microplate spectrophotometric analysis in presence of 0.5 to 2 mM substrate FaGLa.

In general, IC50 refers to the concentration at which inhibition is half-maximal. What is called Ki is the dissociation constant of the complex between target and ligand, obtained from inhibition or displacement.

Take `Cc1nc2ccccc2c(=O)n1N`: on Thermolysin [1] (read-out: IC50), the half-maximal inhibitory concentration (IC50) worked out at 54.9 µM. Moreover, the Ki on Thermolysin [2] was found to be 54.9 µM.

For `Nn1c(C(F)(F)F)nc2ccccc2c1=O`, the half-maximal inhibitory concentration (IC50) on Thermolysin [1] (read-out: IC50) is 37.9 µM. Besides, the inhibition constant (Ki) at Thermolysin [2] was found to be 37.9 µM. In the case of `NNc1nc2ccccc2c(=O)n1N`, the IC50 entry on Thermolysin [1] is “Not Active”.

Take `O=c1c2ccccc2ncn1CCO`: at Thermolysin [1], the 50% inhibitory concentration (IC50) result is on record as “Not Active”. As for `Cc1nc2ccccc2c(=O)n1N=C(N)N`, the half-inhibitory concentration (IC50) entry on Thermolysin [1] was “Not Active”. As for `Cc1nc2ccccc2c(=O)n1NC(=O)CCl`, the 50% inhibitory concentration (IC50) result on Thermolysin [1] was “Not Active”. With `O=c1[nH]c(-c2ccc(Cl)cc2)nc2ccccc12`, on Thermolysin [1] (read-out: IC50), the concentration for half-maximal inhibition (IC50) is 1.25 µM. For the same compound, the Ki on Thermolysin [2] came out at 1.25 µM. Take `CC(=O)Nn1c(-c2ccccc2)nc2ccccc2c1=O`: on Thermolysin [1], the IC50 result was “Not Active”. Turning to `Cc1cc(C)c(-n2c(-c3ccccc3)nc3ccccc3c2=O)c(C)c1`, on Thermolysin [1], the half-inhibitory concentration (IC50) result is given as “Not Active”. Still for that read-out and setting: the value for `Cc1nc2ccccc2c(=O)n1CCO` was “Not Active”; that for `O=C(Nc1ccccc1C(=O)NCCCn1c(-c2ccccc2)nc2ccccc2c1=O)c1ccccc1` was “Not Active”. As to `CO/C(C)=N/n1c(-c2ccccc2)nc2ccccc2c1=O`, on Thermolysin [1] (read-out: IC50), the IC50 was 123000 µM. The inhibitory constant (Ki) on Thermolysin [2] turned out to be 106000 µM.

On to `Cc1nc2ccccc2c(=O)n1NC(=O)c1ccccc1`, for which the IC50 entry at Thermolysin [1] was “Not Active”. With `CC(C)=NN1C(=O)c2ccccc2NC1(C)C`, on Thermolysin [1] (read-out: IC50), the 50% inhibitory concentration (IC50) is 0.248 µM. The Ki on Thermolysin [2] was found to be 0.243 µM.

Turning to `O=C1c2ccccc2NC(c2ccccc2)N1/N=C/c1ccccc1` (stereo unspecified), the IC50 result on Thermolysin [1] was “Not Active”. On the same count and under the same terms, the same measure for `O=c1c2ccccc2nc2n1NC(c1ccccc1)N(/N=C/c1ccccc1)C2` (stereo unspecified): “Not Active”; for `C/C(=N\n1c(-c2ccccc2)nc2ccccc2c1=O)Nc1cccc2ccccc12`: “Not Active”. Same read-out and setting: the same measure for `CCc1nc2ccccc2c(=O)[nH]1`: “Not Active”; for `O=c1[nH]c(-c2ccc([N+](=O)[O-])cc2)nc2ccccc12`: “Not Active”; for `Cc1ccc(C(=O)Nn2c(C)nc3ccccc3c2=O)cc1`: “Not Active”.

Consider `CCOC(=O)Cc1nc2ccccc2c(=O)[nH]1`, for which the 50% inhibitory concentration (IC50) entry on Thermolysin [1] is on record as “Not Active”. Same read-out and setting: the same measure for `COC(=O)c1ccccc1NC(=O)C(F)(F)F`: “Not Active”.

In the case of `O=c1c2ccccc2nc(C(F)(F)F)n1-c1ccccc1`, the concentration for half-maximal inhibition (IC50) at Thermolysin [1] (read-out: IC50) stood at 0.0115 µM. On Thermolysin [2], the Ki stood at 0.0115 µM.

`Cc1ccc(-c2nc3ccccc3c(=O)n2CCCN)cc1`: the half-maximal inhibitory concentration (IC50) entry on Thermolysin [1] is “Not Active”. Regarding `Nn1c(-c2ccc(Cl)cc2)nc2ccccc2c1=O`, on Thermolysin [1] (read-out: IC50), the IC50 amounted to 12700 µM. Further, at Thermolysin [2], the Ki stood at 10100 µM.

`Nn1c(-c2ccccc2)nc2ccccc2c1=O`: the 50% inhibitory concentration (IC50) result at Thermolysin [1] is “Not Active”. As to `Cc1ccc(-c2nc3ccccc3c(=O)n2-c2nccs2)cc1`, on Thermolysin [1] (read-out: IC50), the IC50 amounted to 76.8 µM. Moreover, on Thermolysin [2], the inhibition constant Ki stood at 59.3 µM. Take `O=c1c2ccccc2nc(-c2ccccc2)n1-c1nccs1`: the half-maximal inhibitory concentration (IC50) entry on Thermolysin [1] is “Not Active”. Turning to `Nn1c(-c2ccc([N+](=O)[O-])cc2)nc2ccccc2c1=O`, on Thermolysin [1] (read-out: IC50), the IC50 stood at 3120 µM. Further, the Ki at Thermolysin [2] was found to be 3120 µM. On to `O=c1c2ccccc2nc(-c2ccccc2)n1-c1ccc(I)cc1`, for which, on Thermolysin [1], the concentration for half-maximal inhibition (IC50) result is reported as “Not Active”. Still for that read-out and setting: the same measure for `Cc1ccc(-c2nc3ccccc3c(=O)n2CCN)cc1`: “Not Active”; for `CC(=O)Nn1c(C)nc2ccccc2c1=O`: “Not Active”.

The record behind these values is ChEMBL document CHEMBL1165981, “Identification of novel quinazolin-4(3H)-ones as inhibitors of thermolysin, the prototype of the M4 family of proteinases” (Bioorg Med Chem, 2010).
